Where two headings read alike, the source gives them in different places.
Experiments:
[1] = Bioanalysis of brain and plasma samples (exposure, UPLC-MS/MS); assay type: in vivo, rat; details: male, Sprague Dawley, po, 3 hours post dose; for Kp at 3 h: brain/plasma, rat, read-out: Brain/Plasma ratio
Description: Young adult Male Sprague Dawley rats of approximately 250 g weight were purchased from Charles River and received 0-30 mg/kg of vehicle (10% HP betaCD+1M MeSO4, pH 2.5) or test compounds (dissolved in vehicle) only by oral gavage (p.o). The compounds are dosed at a volume of 5 ml/kg. Cohorts of 5-10 animals were established for each treatment condition.
At T=180 minutes after initial dosing the animals were stunned and decapitated with a guillotine. Trunk-blood was sampled in EDTA coated tubes after decapitation of the animal. The blood was centrifuged at 2200 G at 4° C. for 15 minutes and the plasma was collected and frozen at −80° C. The blood was aliquoted for Aβ ELISA and pharmacokinetic analysis. Immediately following sacrifice, the brain was extracted and split into 2 halves. The right hemibrains were snap frozen on dry ice and stored at −80° C. The left half was dissected; with the front forebrain taken for Aβ ELISA and the remainder used for DMPK analysis. These samples were also snap frozen on dry ice and stored at −80° C. until use for analysis.
TC (test compound) was determined in plasma and brain homogenate using UltraPerformance LC® (U PLC®) chromatography followed by tandem-MS (MS/MS) detection.
Brain homogenate was prepared by homogenizing the brain 1:4 (v/v) with water:2-propanol:DMSO (50:30:20 v/v/v) followed by centrifugation and collection of the supernatant. Calibration standards and QC samples were prepared using a Hamilton robot. 150 μL of ISTD in acetonitrile (1 ng/mL ISTD) was added to 25 μL of calibration standards, QC samples and test samples (plasma and brain homogenate) using a Biomek robot. After centrifugation (6200 g, 4° C., 20 min) 100 μL supernatant from each sample was transferred to a new plate and mixed with 100 μL water with 0.1% formic acid using a Biomek robot (method file InVivo transfer). After a quick centrifugation (6200 g, 4° C., 5 min) the samples were placed in the auto-sampler.
MS/MS detection was done with an Applied Biosystems Sciex API 4000 instrument in positive-ion electrospray ionisation mode. TC and ISDD were detected at a parent>daughter mass to charge ratio (m/z). Nitrogen was used for the nebulizer and collision gases. The peak area correlated linearly with the plasma and brain concentration of the analytes in the range of 1.00-1000 ng/mL plasma and 5.00-5000 ng/g brain (corrected for dilution). If the plasma/brain sample drug concentration was above 1000 ng/mL or 5000 ng/g, the sample was diluted appropriately in blank plasma/blank brain homogenate before analysis.
Compound 1 was administered at doses of 10 mg/kg p.o. and 30 mg/kg p.o. and brain and plasma samples were collected at 3 hours post dose and the following exposures were measured as described above.

P-gp (MDR1) = test: MDCK-MDR1 assay (permeability, efflux ratio); assay type: in vitro ADME; details: dog
Description: The permeability of the test compounds was assessed in MDCK-MDR1 cells that were cultured to confluency (4-6 days) in a 96 transwell plate. Test compounds were diluted with the transport buffer (HBSS+1% BSA) to a concentration of 0.5 μM and applied to the apical or basolateral side of the cell monolayer. Permeation of the test compounds from A to B direction or B to A direction was determined in triplicate over a 60-minute incubation time at 37° C. and 5% CO2 with a relative humidity of 95%. Test compounds were quantified by LC-MS/MS analysis based on the peaks area ratios of analyte/IS in both the receiver and donor wells of the transwell plate.
The apparent permeability coefficient Papp (cm/s) was calculated using the equation: Papp=(dCr/dt)×Vr/(A×C0)
Where dCr/dt is the cumulative concentration of compound in the receiver chamber as a function of time (μM/s); Vr is the solution volume in the receiver chamber (0.05 mL on the apical side; 0.25 mL on the basolateral side); A is the surface area for the transport, i.e. 0.0804 cm^2 for the area of the monolayer; C0 is the initial concentration in the donor chamber (μM).

human BACE1 [2] = biological target: T1, human BACE1 (Homo sapiens, UniProt P56817); test: BACE1 efficacy assay (FRET-based, commercial BACE1 kit); assay type: biochemical; design: purchased Life Technologies P2985; details: test compound at 10 μM
T1 sequence (P56817 46-501): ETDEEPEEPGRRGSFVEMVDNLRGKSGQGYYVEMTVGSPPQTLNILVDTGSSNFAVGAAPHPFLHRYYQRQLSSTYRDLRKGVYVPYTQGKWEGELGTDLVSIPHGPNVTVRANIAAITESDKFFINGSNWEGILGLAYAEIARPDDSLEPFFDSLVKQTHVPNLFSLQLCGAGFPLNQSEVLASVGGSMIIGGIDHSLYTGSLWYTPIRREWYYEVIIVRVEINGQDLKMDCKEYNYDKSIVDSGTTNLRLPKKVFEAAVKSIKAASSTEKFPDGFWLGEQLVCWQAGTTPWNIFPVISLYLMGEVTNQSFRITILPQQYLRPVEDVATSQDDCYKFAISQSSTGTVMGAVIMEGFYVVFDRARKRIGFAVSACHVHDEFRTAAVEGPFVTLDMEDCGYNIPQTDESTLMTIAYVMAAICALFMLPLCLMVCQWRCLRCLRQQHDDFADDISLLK
Description: The efficacy assay was performed as a FRET-based assay using a commercially available BACE1 kit (Life Technologies, P2985). 2 μl test compound at 10 μM (final concentration) and 15 μl BACE1 enzyme from the kit (final concentration 3 nM) were preincubated for 15 minutes at room temperature before addition of 15 μl of substrate from the kit (250 nM final concentration) and incubated for additional 90 minutes at room temperature. The assay plate was subsequently read in a Pherastar (Ex540/Em590).

human BACE1 [3] = biological target: T1, human BACE1; test: BACE1 binding assay (SPA-based, radioligand displacement); design: biotin (biotinylated form); made in house; host or cells: Freestyle HEK293 cells; details: pH 4.5, 10 nM radioligand, 6 nM human BACE1, read-out: BACE1 binding affinity
Description: The binding assay was performed as SPA-based assay using a biotinylated form of human BACE1 recombinantly expressed and subsequently purified from Freestyle HEK293 cells. The binding assay was run in a 50 mM sodium acetate buffer, pH 4.5 containing 50 mM NaCl and 0.03% Tween-20 in white clear bottom 384 plates (Corning #3653). 10 nM (final concentration) radioligand ([^3H]-N-((1S,2R)-1-benzyl-3-cyclopropylamino-2-hydroxy-propyl)-5-(methanesulfonyl-methyl-amino)-N-((R)-1-phenyl-ethyl)-isophthalamide) (TRQ11569 purchased from GE Healthcare) was mixed with test compound at a given concentration, 6 nM (final concentration) human BACE1 and 25 μg Streptavidin coated PVT core SPA beads (RPNQ0007, GE Healthcare Life Sciences) in a total volume of 40 μl. Several concentrations of each test compound were tested in the assay for IC50 determination. The plates were incubated for one hour at room temperature and counted in a WaIlac Trilux counter. […] For each test compound, a IC50 value (the concentration mediating 50% inhibition of the specific binding of the radioligand) was determined from concentration-response curve and used to calculate the Ki from the equation Ki=IC50/(1+L/Kd), where L and Kd are the final concentration of the radioligand used in the assay and the dissociation constant of the radioligand, respectively. The Kd of the radioligand was determined from saturation binding experiments.

[4] = rat brain, 10 mg/kg p.o., read-out: Exp (ng/g), brain
[5] = rat brain, 30 mg/kg p.o., read-out: Exp (ng/g), brain
[6] = rat plasma, 10 mg/kg p.o., read-out: Exp (ng/g), plasma
[7] = rat plasma, 30 mg/kg p.o., read-out: Exp (ng/g), plasma

Kp at 3 h ([1]; 10 mg/kg p.o.) | Kp at 3 h ([1]; 30 mg/kg p.o.) | concentration at 3 h [1, 4] [ng/g] | concentration at 3 h [1, 5] [ng/g] | concentration at 3 h [1, 6] [ng/g] | concentration at 3 h [1, 7] [ng/g] | efflux ratio at 60 min, 0.5 µM (P-gp (MDR1)) | inhibition at 10 µM (human BACE1 [2]) [%] | Ki (human BACE1 [3]) [nM] | Compound
1.95 | 2.74 | 536 | 1610 | 275 | 587 | 1.07 | 103 | 24 | COc1cnc(C(=O)Nc2ccc(F)c([C@]3(C)CC[C@@](F)(CF)C(N)=N3)c2)cn1 [Compound 5, N-(3-((2S,5S)-6-Amino-5-fluoro-5-(fluoromethyl)-2-methyl-2,3,4,5-tetrahydropyridin-2-yl)-4-fluorophenyl)-5-methoxypyrazine-2-carboxamide]
2.1 | 2.3 | 416 | 1350 | 195 | 590 | 1.89 | 103 | 55 | C[C@@]1(c2cc(NC(=O)c3cnc(C(F)F)cn3)ccc2F)CC[C@@](F)(CF)C(N)=N1 [Compound 11]
1.25 | 1.59 | 588 | 1590 | 469 | 1000 | 1.5 | 100 | 40 | C[C@@]1(c2cc(NC(=O)c3ccc(F)cn3)ccc2F)CC[C@@](F)(CF)C(N)=N1 [Compound 13, N-(3-((2S,5S)-6-Amino-5-fluoro-5-(fluoromethyl)-2-methyl-2,3,4,5-tetrahydropyridin-2-yl)-4-fluorophenyl)-5-fluoropicolinamide]

From patent US10011596B2, “2-amino-3-fluoro-3-(fluoromethyl)-6-methyl-6-phenyl-3,4,5,6-tetrahydropyridines as BACE1 inhibitors” (H. Lundbeck A/S, priority 2015, dated 2018)
